Results reported in patent US9771389B2, “Tylosin derivatives and method for preparation thereof” (BAYER ANIMAL HEALTH GMBH, priority 2013, dated 2017).
Converted amounts (≈) assume the structure as drawn. Where two headings read alike, the source gives them in different places.

Legend:
[1] = system: Bacillus subtilis ATCC6633; assay: Paper disc assay, Bacillus subtilis; format: cell-based; conditions: S
Protocol: (§1) (2) Antibacterial activities against other bacteria were determined with Micrococcus luteus ATCC9341 (1), Bacillus subtilis […] (s), Escherichia coli NIHJ (c), Xanthomonas campestris KB88 (X), Mucor racemosus IFO 4581 (Mu) and Candida albicans ATCC 64548 (Ca).
(§2) Bacillus subtilis ATCC6633 was incubated in Davis synthetic medium and then the seed broth was combined with the medium in the ratio of 1:99 to obtain a test plate. Micrococcus luteus ATCC9341, Escherichia coli NIHJ and Xanthomonas campestris KB88 were respectively incubated in Nutrient agar medium and inoculated at 0.2%, 0.5% and 1.0%. Mucor racemosus IFO 4581 and Candida albicans ATCC 64548 were respectively incubated in GY agar medium and then inoculated at 0.3% and 0.2%.
(§3) A paper disc (ADVANTEC, Φ:6 mm) was impregnated with a solution of test compound and dried under reduced pressure. The paper disc was put on the test plate and it was incubated for 24 hours at 37° C. After incubation, the inhibition zone diameter and clarity (A to E) were determined.

[2] = system: Micrococcus luteus ATCC9341; assay: Paper disc assay, Micrococcus luteus; format: cell-based; conditions: column 1
Protocol: as §1, §2, §3

[3] = system: Xanthomonas campestris KB88; assay: Paper disc assay, Xanthomonas campestris; format: cell-based; conditions: X
Protocol: as §1, §2, §3

[4] = system: Mannheimia haemolytica, 3 isolates; assay: MIC against Mannheimia haemolytica isolates; format: cell-based; conditions: Mannheimia haemolytica
Protocol: (§4) Minimal inhibitory concentrations (MICs) were determined against the most prevalent pathogens in cattle (Mannheimia Haemolytica, 3 isolates) and swine (A. pleuropneumoniae, 6 isolates). In addition the activity of several compounds was tested against two bacterial species, i.e. Mannheimia haemolytica and Actinobacillus pleuropneumoniae, which are considered as the most important bacterial respiratory pathogens in cattle and swine, respectively.

[5] = system: Actinobacillus pleuropneumoniae, 6 isolates; assay: MIC against Actinobacillus pleuropneumoniae isolates; format: cell-based
Protocol: as §4

[6] = system: M. hemolytica KB345 (Tilmicosin-sensitivity strain); assay: Paper disc assay, M. hemolytica KB345; format: cell-based, Mannhemia hemolytica; conditions: Table 4
Protocol: (1) Antibacterial activities against Mannheimia and Pasteurella were determined by the following steps: • 1) M. hemolytica KB345 (Tilmicosin-sensitivity strain) and M. hemolytica KB346 (Tilmicosin-low sensitivity strain) were provided. KB 345 strain stored at −80° C. was seeded to BHIB agar medium (10 mL) by using Microbank beads (Pro-Lab) and platinum nail. After statically incubating the KB 345 strain for 24 hours at 37° C., it was seeded to maintaining slant BHIB agar medium (7 mL) by using platinum loop, further statically incubated for 24 hours at 37° C. to obtain slant. One platinum loop of KB 345 strain stored at the slant was inoculated into a large test tube charged with BHIB liquid medium (10 mL) and then incubated for 24 hours at 37° C. with shaking. • 2) A paper disc (ADVANTEC, Φ:6 mm) was impregnated with a solution of test compound and dried under reduced pressure. • 3) To a melted BHIB agar medium was inoculated 1% of the broth obtained from step 1) above to prepare a test plate. After the medium set, the paper disc prepared in step 2) above was put on the plate and it was incubated at 37° C. • 4) After one day, the inhibition zone diameter and clarity (A to E) were determined. For KB346 strain, the same procedures were repeated.

[7] = 3ISOLATES, 3 Mannheimia haemolytica isolates, broth dilution method, read-out: Range of minimum inhibitory concentrations (MIC)
[8] = 6ISOLATES, 6 Actinobacillus pleuropneumoniae isolates, broth dilution method, read-out: Range of minimum inhibitory concentrations (MIC)

| MIC [5, 8] | SMILES | Inhibition zone ([1]; 0.1 mg/6 mm disc) | Inhibition zone ([1]; 1 mg/6 mm disc) | Inhibition zone ([1]; 10 mg/6 mm disc) | Inhibition zone ([2]; 0.1 mg/6 mm disc) | Inhibition zone ([2]; 1 mg/6 mm disc) | Inhibition zone ([2]; 10 mg/6 mm disc) | Inhibition zone ([3]; 0.1 mg/6 mm disc) | Inhibition zone ([3]; 10 mg/6 mm disc) | MIC [4, 7] | further results |
| --- | --- | --- | --- | --- | --- | --- | --- | --- | --- | --- | --- |
| – | CC[C@H]1OC(=O)C[C@@H](O)[C@H](C)[C@@H](O[C@@H]2OC(C)[C@@H](O)C(N(C)C)C2O)[C@@H](CCn2cc(-c3ccccn3)nn2)C[C@@H](C)C(=O)/C=C/C(C)=C/[C@@H]1CO[C@@H]1OC(C)[C@@H](O)C(OC)C1OC (some centres unmarked) [YT12, 20-(4-(pyridine-2-yl)-1H-1,2,3-triazol-1-yl)-20-deoxodesmycosin] | 7 mm | 12.5 mm | 14 mm | 12 mm | 18.5 mm | 25 mm | 7 mm | 27 mm | – | – |
| – | CC[C@H]1OC(=O)C[C@@H](O)[C@H](C)[C@@H](O[C@@H]2OC(C)[C@@H](O)C(N(C)C)C2O)[C@@H](CCn2cc(-c3ccccc3)nn2)C[C@@H](C)C(=O)/C=C/C(C)=C/[C@@H]1CO[C@@H]1OC(C)[C@@H](O)C(OC)C1OC (some centres unmarked) [YT13, 20-(4-phenyl-1H-1,2,3-triazol-1-yl)-20-deoxodesmycosin] | 9.5 mm | 12 mm | 15.5 mm | 15 mm | 21.5 mm | 27.5 mm | 8 mm | 23.5 mm | – | Inhibition zone ([3]; 1 mg/6 mm disc): 17 mm |
| – | CC[C@H]1OC(=O)C[C@@H](O)[C@H](C)[C@@H](O[C@@H]2OC(C)[C@@H](O)C(N(C)C)C2O)[C@@H](CCn2cc(CCCCCl)nn2)C[C@@H](C)C(=O)/C=C/C(C)=C/[C@@H]1CO[C@@H]1OC(C)[C@@H](O)C(OC)C1OC (some centres unmarked) [YT19, 20-(4-(4-chlorobutyl)-1H-1,2,3-triazol-1-yl)-20-deoxodesmycosin] | 7 mm | 10.5 mm | 15 mm | 13 mm | 19 mm | 26 mm | 7 mm | 23 mm | – | Inhibition zone ([3]; 1 mg/6 mm disc): 14.5 mm |
| – | CC[C@H]1OC(=O)C[C@@H](O)[C@H](C)[C@@H](O[C@@H]2OC(C)[C@@H](O)C(N(C)C)C2O)[C@@H](CC=O)C[C@@H](C)C(=O)/C=C/C(C)=C/[C@@H]1Cn1cc(-c2ccc(-c3ccccc3)cc2)nn1 (some centres unmarked) [YT104, 23-(4-biphenyl-1H-1,2,3-triazol-1-yl)-23-Deoxy-5-O-mycaminosyltylonolide] | – | – | – | – | – | – | – | – | – | MIC ([4]; M. haemolytica isolate 1, read-out: MICs): 8 µg/mL (≈ 9.99 µM); MIC ([4]; M. haemolytica isolate 2, read-out: MICs): 4 µg/mL (≈ 4.99 µM); MIC ([4]; M. haemolytica isolate 3, read-out: MICs): 8 µg/mL (≈ 9.99 µM); MIC ([5]; Actinobacillus pleuropneumoniae, pleuropneumoniae isolate 1, read-out: MICs): > 16 µg/mL; MICs ([5]; pleuropneumoniae isolate 2): >16 µg/mL; MICs ([5]; pleuropneumoniae isolate 3): >16 µg/mL; MICs ([5]; pleuropneumoniae isolate 4): >16 µg/mL; MICs ([5]; pleuropneumoniae isolate 5): >16 µg/mL; MICs ([5]; pleuropneumoniae isolate 6): >16 µg/mL |
| – | CCC1OC(=O)CC(O)C(C)C(OC2OC(C)C(O)C(N(C)C)C2O)C(CCn2cc(-c3ccccc3)nn2)CC(C)C(=O)C=CC(C)=CC1CI (centres unmarked) [YT113] | – | – | – | – | – | – | – | – | – | Inhibition zone ([6]; 10 mg/6 mm disk): 11.0 mm; Inhibition zone ([6]; 30 mg/6 mm disk): 18.0 mm; Inhibition zone ([6]; 100 mg/6 mm disk): 19.5 mm |
| – | CCC1OC(=O)CC(O)C(C)C(OC2OC(C)C(O)C(N(C)C)C2O)C(CCn2cc(-c3ccccc3)nn2)CC(C)C(=O)C=CC(C)=CC1CN=[N+]=[N-] (centres unmarked) [YT114, 20-(4-phenyl-1H-1,2,3-triazol-1-yl)-20-deoxo-23-azido-23-deoxy-5-O-mycaminosyltylonolide] | – | – | – | – | – | – | – | – | – | Inhibition zone ([6]; 3 mg/6 mm disk): 11.5 mm; Inhibition zone ([6]; 10 mg/6 mm disk): 17.5 mm; Inhibition zone ([6]; 30 mg/6 mm disk): 21.0 mm; Inhibition zone ([6]; 100 mg/6 mm disk): 21.0 mm |
| 4 µg/mL (≈ 5.19 µM) | CC[C@H]1OC(=O)C[C@@H](O)[C@H](C)[C@@H](O[C@@H]2OC(C)[C@@H](O)C(N(C)C)C2O)[C@@H](CCNCCn2cc(-c3ccccc3)nn2)C[C@@H](C)C(=O)/C=C/C(C)=C/[C@@H]1CO (some centres unmarked) [YT617] | – | – | – | – | – | – | – | – | 2 to 8 µg/mL (≈ 2.6 to 10.4 µM) | – |
| 4 to 8 µg/mL (≈ 4.84 to 9.67 µM) | CC[C@H]1OC(=O)C[C@@H](O)[C@H](C)[C@@H](O[C@@H]2OC(C)[C@@H](O)C(N(C)C)C2O)[C@@H](CCN(C)Cc2cn(CCNCc3ccccc3)nn2)C[C@@H](C)C(=O)/C=C/C(C)=C/[C@@H]1CO (some centres unmarked) [YT653] | – | – | – | – | – | – | – | – | 1 to 8 µg/mL (≈ 1.21 to 9.67 µM) | – |
| 2 µg/mL (≈ 2.29 µM) | CC[C@H]1OC(=O)C[C@@H](O)[C@H](C)[C@@H](O[C@@H]2OC(C)[C@@H](O)C(N(C)C)C2O)[C@@H](CCN(CCn2cc(-c3cccc(N)c3)nn2)Cc2ccccc2)C[C@@H](C)C(=O)/C=C/C(C)=C/[C@@H]1CO (some centres unmarked) [YT657] | – | – | – | – | – | – | – | – | 2 to 4 µg/mL (≈ 2.29 to 4.57 µM) | – |
| 2 to 8 µg/mL (≈ 2.32 to 9.29 µM) | CC[C@H]1OC(=O)C[C@@H](O)[C@H](C)[C@@H](O[C@@H]2OC(C)[C@@H](O)C(N(C)C)C2O)[C@@H](CCN(CCn2cc(-c3cccnc3)nn2)Cc2ccccc2)C[C@@H](C)C(=O)/C=C/C(C)=C/[C@@H]1CO (some centres unmarked) [YT664] | – | – | – | – | – | – | – | – | 4 to 8 µg/mL (≈ 4.65 to 9.29 µM) | – |
